According to patent publication US20230131993A1 (priority 2020, published 2023):
Like-named read-outs stand apart in the source and are kept apart here.

Experiments:
[1] = Oxipres accelerated stability test of DragoCalm: Avenanthramide C content by HPLC before and after treatment; settings: for degradation inhibitory activity, ranking of single stabilizers: as demonstrated by the examples; for Degradation (%) of Avenanthramide C: DragoCalm, Oxipres 5 bars oxygen, 24 hours, 70° C.
Experimental: The oxidative stability of the glycerol/water-based solution of an DragoCalm® extract as described below with different stabilizer was evaluated against a glycerol/water-based solution of an oat extract without stabilizer.
The Oxipres device allows the determination of oxidative resistance (shelf life) of oils. The device is a modification of the bomb method according to ASTM D941, which is based on oxidation with oxygen. The test runs under elevated pressure and temperature, through which the degradation process is accelerated. During the test, the consumption of oxygen results in a pressure drop in the vessel. Decrease of pressure indicates more consumption of oxygen and higher oxidation of the test product.
Thus, it is an accelerated stability test due to harder conditions such as temperature and pressure.
(§1) Stabilizers were presolved in DragoCalm® under stirring at room temperature or, if necessary at a temperature from 40 to 50° C. […] The DragoCalm® samples (15 g) were placed into the reaction vessel and were either exposed to 5 bars of oxygen for 24 hours at 70° C. using the Oxipres device.
(§2) The evaluation of the samples, i.e. the determination of content of Avns was determined by HPLC (comparison before and after Oxipres treatment).
The content of Avenanthramide C was determined by HPLC before and after Oxipres treatment.

[2] = Color stability of DragoCalm before and after Oxipres treatment (L*a*b* system, Δb*); type: physicochemical; set-up: key: L*a*b* Δb* = b* change before vs after Oxipres; higher = more discolored; settings: color difference before/after Oxipres treatment
Experimental: (i.e. hydroxyacetophenone).
Furthermore, the color of the DragoCalm® samples was measured before and after the Oxipres treatment by using the L*a*b* system (Lico 690). The b* value describes the discoloration in the yellowish/red/brownish area, the Δ b* value describes the difference of color before and after Oxipres treatment. The higher the Δ b* value the more discolorated is the test solution.

[3] = Oxipres stability test of DragoCalm: Avenanthramide L; settings: before and after Oxipres treatment
Experimental: as §1, §2
(§3) The test procedure and the evaluation of the samples were carried out in the same manner as described above for Avenanthramide C.

[4] = Oxipres stability test of DragoCalm: Avenanthramide B; settings: before and after Oxipres treatment, additive 0.1 %
Experimental: as §1, §2, §3

[5] = 24 h, 0.1 %
Experimental: as §1, §2, §3

mast cell = settings: through the interaction with the neurokinin-1 receptor; cited from earlier work
[6] = during storage; cited from earlier work
[7] = in DragoCalm after Oxipres treatment (5 bars oxygen, 24 hours, 70° C.), additive 0.05 %
[8] = in DragoCalm before Oxipres treatment, additive 0.05 %
[9] = in DragoCalm after Oxipres treatment (5 bars oxygen, 24 hours, 70° C.), additive 0.10 %
[10] = in DragoCalm before Oxipres treatment, additive 0.10 %

Molecule	Avenanthramide C End (ppm) [1, 9]	Avenanthramide C Start (ppm) [1, 10]	Δb* ([2]; additive 0.10 %)	also measured
O=C1O[C@H]([C@@H](O)CO)C(O)=C1O [Ascorbic acid]	–	–	–	degradation inhibitory activity, ranking of single stabilizers [1]: most effective single antioxidant; Avenanthramide C End (ppm) [1, 7]: 3 ppm; Avenanthramide C Start (ppm) [1, 8]: 16 ppm; Δb* ([2]; additive 0.05 %): 8.2
O=C(O)C(O)C(O)C(=O)O (stereo not shown) [Tartaric acid]	1 ppm	11 ppm	9.4	degradation inhibitory activity, ranking of single stabilizers [1]: most single effective alpha hydroxy acids
Trisodium Ethylenediamine Disuccinate	3 ppm	9 ppm	7.0	Degradation of Avenanthramide L (%) ([3]; additive 0.10 %): 0%; Degradation (%) of Avenanthramide C ([1]; additive 0.10 %): 66.7%; Degradation of Avenanthramide B (%) [4]: 7.4%
O=C(O)CC(O)C(=O)O (stereo not shown) [Malic acid]	1 ppm	11 ppm	8.3	degradation inhibitory activity, ranking of single stabilizers [1]: most single effective alpha hydroxy acids
O=P(O)(O)O[C@H]1[C@H](OP(=O)(O)O)[C@@H](OP(=O)(O)O)[C@H](OP(=O)(O)O)[C@@H](OP(=O)(O)O)[C@H]1OP(=O)(O)O [Phytic Acid]	2 ppm	14 ppm	8.2	Degradation of Avenanthramide L (%) [5]: 20.0%
O=C(CCc1ccc(O)cc1)Nc1ccccc1C(=O)O [Dihydroavenanthramide D, 2-{[3-(4-Hydroxyphenyl)propanoyl]amino}benzoic acid]	–	–	–	mast cell degranulation (mast cell): inhibits mast cell degranulation; stability (known, words) [6]: more stable in comparison to Avenanthramide C
O=C(O)CC(O)(CC(=O)O)C(=O)O [Citric acid]	1 ppm	18 ppm	8.2	Avenanthramide C End (ppm) [1, 7]: 1 ppm; Avenanthramide C Start (ppm) [1, 8]: 26 ppm; Δb* ([2]; additive 0.05 %): 6.5
CC(C(=O)[O-])N(CC(=O)[O-])CC(=O)[O-].[Na+].[Na+].[Na+] (stereo not shown) [Trisodium MGDA, trisodium methylglycinediacetic acid]	–	–	–	Degradation of Avenanthramide L (%) ([3]; additive 0.2 %): 20.0%
O=C([O-])CC[C@@H](C(=O)[O-])N(CC(=O)[O-])CC(=O)[O-].[Na+].[Na+].[Na+].[Na+] [Tetrasodium Glutamate Diacetate]	1 ppm	13 ppm	7.8	–
O=C(C=Cc1ccc(O)c(O)c1)Nc1ccc(O)cc1C(=O)O [Avenanthramide C, N-(3′-4′-dihydroxycinnamoyl)-5-hydroxyanthranilic acid]	–	–	–	stability (known, words) [6]: low stability
CC(O)C(=O)O (stereo not shown) [Lactic acid]	1 ppm	12 ppm	8.4	–
O=C([O-])CN(CCN(CC(=O)[O-])CC(=O)O)CC(=O)O.[Na+].[Na+] [Disodium EDTA]	–	–	5.0	Avenanthramide C End (ppm) [1]: 9 ppm; Avenanthramide C Start (ppm) [1]: 16 ppm
CC(=O)c1ccc(O)cc1 [4-Hydroxyacetophenone]	1 ppm	18 ppm	7.3	Degradation (%) of Avenanthramide C ([1]; additive 0.10 %): 94.4%; Degradation of Avenanthramide B (%) [4]: 18.5%
